According to patent US8053581B2, “Trisubstituted thiazole compounds, preparations methods, pharmaceutical compositions and medicals uses thereof” (Institute of Pharmacology and Toxicology Academy of …, priority 2006, dated 2011):

Compound | melting point [°C]
COc1ccc(-c2nc(N)sc2Cc2ccccc2)cc1 [Example 1, 5-benzyl-4-(4-methoxy-phenyl)-thiazol-2-ylamine] | 177 to 178
Nc1nc(-c2ccc(O)cc2)c(Cc2ccccc2)s1 [Example 2, 5-benzyl-4-(4-hydroxy-phenyl)-thiazol-2-ylamine] | 170 to 172
COc1ccc(-c2nc(NC(=O)c3ccccc3)sc2Cc2ccccc2)cc1 [Example 3, N-[5-benzyl-4-(4-methoxy-phenyl)-thiazol-2-yl]-benzamide] | 146 to 147
COc1ccc(-c2nc(NC(=O)c3ccc(F)cc3)sc2Cc2ccccc2)cc1 [Example 4, N-[5-benzyl-4-(4-methoxy-phenyl)-thiazol-2-yl]-4-fluoro-benzamide] | 164 to 165
COc1ccc(-c2nc(NC(=O)c3ccc(Cl)cc3)sc2Cc2ccccc2)cc1 [Example 5, N-[5-benzyl-4-(4-methoxy-phenyl)-thiazol-2-yl]-4-chloro-benzamide] | 182 to 183
COc1ccc(-c2nc(N)sc2Cc2ccc([N+](=O)[O-])cc2)cc1 [Example 6, 4-(4-methoxy-phenyl)-5-(4-nitro-benzyl)-thiazol-2-ylamine] | 209 to 210
O=C(Nc1nc(-c2ccc(O)cc2)c(Cc2ccccc2)s1)c1ccc(F)cc1 [Example 7, N-[5-benzyl-4-(4-hydroxy-phenyl)-thiazol-2-yl]-4-fluoro-benzamide] | 205 to 206
Nc1nc(-c2ccc(F)cc2)c(Cc2ccc([N+](=O)[O-])cc2)s1 [Example 9, 4-(4-fluoro-phenyl)-5-(4-nitro-benzyl)-thiazol-2-ylamine] | 217 to 218
COc1ccc(-c2nc(NC(=O)c3ccc(F)cc3)sc2Cc2ccc([N+](=O)[O-])cc2)cc1 [Example 10, 4-fluoro-N-[4-(4-methoxy-phenyl)-5-(4-nitro-benzyl)-thiazol-2-yl]-benzamide] | 188 to 189
O=C(Nc1nc(-c2ccc(F)cc2)c(Cc2ccc([N+](=O)[O-])cc2)s1)c1ccc(F)cc1 [Example 11, 4-fluoro-N-[4-(4-fluoro-phenyl)-5-(4-nitro-benzyl)-thiazol-2-yl]-benzamide] | 120 to 122
COc1ccc(-c2nc(NC(=O)c3ccc(OC)c(OC)c3)sc2Cc2ccccc2)cc1 [Example 12, N-[5-benzyl-4-(4-methoxy-phenyl)-thiazol-2-yl]-3,4-dimethoxy-benzamide] | 179 to 180
COc1ccc(-c2nc(NC(=O)c3ccc(C#N)cc3)sc2Cc2ccccc2)cc1 [Example 13, N-[5-benzyl-4-(4-methoxy-phenyl)-thiazol-2-yl]-4-cyano-benzamide] | 194 to 196
COc1ccc(-c2nc(NC(=O)c3ccc(C#N)cc3)sc2Cc2ccc([N+](=O)[O-])cc2)cc1 [Example 14, 4-cyano-N-[4-(4-methoxy-phenyl)-5-(4-nitro-benzyl)-thiazol-2-yl]-benzamide] | 190 to 192
N#Cc1ccc(C(=O)Nc2nc(-c3ccc(F)cc3)c(Cc3ccc([N+](=O)[O-])cc3)s2)cc1 [Example 15, 4-cyano-N-[4-(4-fluoro-phenyl)-5-(4-nitro-benzyl)-thiazol-2-yl]-benzamide] | 244 to 245
COc1ccc(-c2nc(NC(=O)c3cc(F)cc(F)c3)sc2Cc2ccccc2)cc1 [Example 16, N-[5-benzyl-4-(4-methoxy-phenyl)-thiazol-2-yl]-3,5-difluoro-benzamide] | 154 to 155
COc1ccc(-c2nc(NC(=O)c3cc(F)cc(F)c3)sc2Cc2ccc([N+](=O)[O-])cc2)cc1 [Example 17, 3,5-difluoro-N-[4-(4-methoxy-phenyl)-5-(4-nitro-benzyl)-thiazol-2-yl]-benzamide] | 189 to 190
O=C(Nc1nc(-c2ccc(F)cc2)c(Cc2ccc([N+](=O)[O-])cc2)s1)c1cc(F)cc(F)c1 [Example 18, 3,5-difluoro-N-[4-(4-fluoro-phenyl)-5-(4-nitro-benzyl)-thiazol-2-yl]-benzamide] | 216 to 218
COc1ccc(C(=O)Nc2nc(-c3ccc(F)cc3)c(Cc3ccc([N+](=O)[O-])cc3)s2)cc1OC [Example 20, N-[4-(4-fluoro-phenyl)-5-(4-nitro-benzyl)-thiazol-2-yl]-3,4-dimethoxy-benzamide] | 128 to 129
COc1ccc(-c2nc(NC(=O)c3cc(F)cc(F)c3)sc2Cc2ccc(F)cc2)cc1 [Example 22, 3,5-difluoro-N-[5-(4-fluoro-benzyl)-4-(4-methoxy-phenyl)-thiazol-2-yl]-benzamide] | 175 to 176
COc1ccc(-c2nc(NC(=O)c3ccc(F)cc3)sc2Cc2ccc(F)cc2)cc1 [Example 23, 4-fluoro-N-[5-(4-fluoro-benzyl)-4-(4-methoxy-phenyl)-thiazol-2-yl]-benzamide] | 184 to 185
COc1ccc(-c2nc(N(C(=O)c3ccc(OC)c(OC)c3)C(=O)c3ccc(OC)c(OC)c3)sc2Cc2ccc(F)cc2)cc1 [Example 24] | 136 to 137
COc1ccc(-c2nc(NC(=O)c3ccc(C#N)cc3)sc2Cc2ccc(F)cc2)cc1 [Example 25, 4-cyano-N-[5-(4-fluoro-benzyl)-4-(4-methoxy-phenyl)-thiazol-2-yl]-benzamide] | 191 to 192
Nc1nc(-c2ccccc2)c(Cc2ccc([N+](=O)[O-])cc2)s1 [Example 26, 5-(4-nitro-benzyl)-4-phenyl-thiazol-2-ylamine] | 215 to 216
COc1ccc(C(=O)Nc2nc(-c3ccc(OC)cc3)c(Cc3ccccc3)s2)cc1 [Example 27, N-[5-benzyl-4-(4-methoxy-phenyl)-thiazol-2-yl]-4-methoxy-benzamide] | 58 to 59
COc1ccc(-c2nc(NC(=O)c3ccc(OC)c(OC)c3)sc2Cc2ccc([N+](=O)[O-])cc2)cc1 [Example 28, 3,4-dimethoxy-N-[4-(4-methoxy-phenyl)-5-(4-nitro-benzyl)-thiazol-2-yl]-benzamide] | 106 to 108
COc1ccc(C(=O)Nc2nc(-c3ccccc3)c(Cc3ccc([N+](=O)[O-])cc3)s2)cc1OC [Example 29, 3,4-dimethoxy-N-[5-(4-nitro-benzyl)-4-phenyl-thiazol-2-yl]-benzamide] | 105 to 106
COc1ccc(-c2nc(NC(=O)c3ccc(OC)c(OC)c3)sc2Cc2ccc(F)cc2)cc1 [Example 30, N-[5-(4-fluoro-benzyl)-4-(4-methoxy-phenyl)-thiazol-2-yl]-3,4-dimethoxy-benzamide] | 140 to 142
COc1ccc(-c2nc(NC(=O)c3ccc(OC)cc3OC)sc2Cc2ccccc2)cc1 [Example 35, N-[5-benzyl-4-(4-methoxy-phenyl)-thiazol-2-yl]-2,4-dimethoxy-benzamide] | 196 to 197
COc1ccc(-c2nc(NC(=O)c3ccccc3OC)sc2Cc2ccccc2)cc1 [Example 36, N-[5-benzyl-4-(4-methoxy-phenyl)-thiazol-2-yl]-2-methoxy-benzamide] | 147 to 148
COc1ccc(-c2nc(NC(=O)c3cc(OC)c(OC)c(OC)c3)sc2Cc2ccccc2)cc1 [Example 37, N-[5-benzyl-4-(4-methoxy-phenyl)-thiazol-2-yl]-3,4,5-trimethoxy-benzamide] | 157 to 158
